Where two headings read alike, the source gives them in different places.
What was measured:
[1] = cited from earlier work
[2] = Capsaicin solubilization experiments with varying Tween 80, visual assessment; format: physicochemical; settings: capsaicin at 0.05-0.055% concentration
From the text: Therefore, it was decided to evaluate the use of the concentrated capsaicin (a white powder) as a replacement for the oily oleoresin capsicum extract. However, as capsaicin powder is hydrophobic it was necessary to determine what quantity of surfactant was necessary to maintain the capsaicin in solution. A study was therefore conducted to determine the required concentration of a chosen surfactant (Tween 80) to achieve and maintain complete dissolution of the capsaicin (assuming a capsaicin concentration of 0.054% w/v). In other words, the level of surfactant required for dissolving the capsaicin in an aqueous vehicle was determined as described below.
A series of experiments were undertaken to prepare various samples with the addition of a set quantity of capsaicin powder (equivalent to 0.05% in solution) and varying concentrations of Tween 80.
Sample 1: 1% Tween 80 was prepared according to the following protocol: […]; Tween 80; […]; and 10 mL stock solution. The sample was sonicated for 2 minutes and then visually assessed. […]
Sample 2: 0.5% Tween 80 was prepared according to the following protocol: […] Tween 80; 0.011 g capsaicin; and 10 mL stock solution. The sample was sonicated for 2 minutes and then visually assessed. […]
All samples were left overnight and visually assessed again on the following day. […]

NC(=O)CC[C@@H]1NC(=O)[C@H](Cc2ccccc2)NC(=O)[C@H](Cc2ccc(O)cc2)NC(=O)CCSSC[C@@H](C(=O)N2CCC[C@H]2C(=O)N[C@H](CCCN=C(N)N)C(=O)NCC(N)=O)NC(=O)[C@H](CC(N)=O)NC1=O [desmopressin]
bio-availability of the nasal spray formulation relative to the nasal drop formulation ([1]; in vivo): two to three times higher

CCC(=O)O[C@]1(C(=O)SCF)[C@H](C)C[C@H]2[C@@H]3C[C@H](F)C4=CC(=O)C=C[C@]4(C)[C@@]3(F)[C@@H](O)C[C@@]21C [fluticasone propionate]
bio-availability of the nasal spray formulation relative to the nasal drop formulation ([1]; intranasal administration): about eight times higher

COc1cc(CNC(=O)CCCC/C=C/C(C)C)ccc1O [capsaicin]
required concentration of Tween 80 in the stock solution to achieve complete dissolution of capsaicin [2]: 0.5 % w/v
